{"source": "ChEMBL document CHEMBL4052759", "about": "“Discovery of DS79182026: A potent orally active hepcidin production inhibitor” (Bioorg Med Chem Lett, 2017)", "key": {"[1]": {"target": "T1, Serine/threonine-protein kinase Sgk1 (Homo sapiens) (UniProt O00141)", "T1 sequence (whole entry)": "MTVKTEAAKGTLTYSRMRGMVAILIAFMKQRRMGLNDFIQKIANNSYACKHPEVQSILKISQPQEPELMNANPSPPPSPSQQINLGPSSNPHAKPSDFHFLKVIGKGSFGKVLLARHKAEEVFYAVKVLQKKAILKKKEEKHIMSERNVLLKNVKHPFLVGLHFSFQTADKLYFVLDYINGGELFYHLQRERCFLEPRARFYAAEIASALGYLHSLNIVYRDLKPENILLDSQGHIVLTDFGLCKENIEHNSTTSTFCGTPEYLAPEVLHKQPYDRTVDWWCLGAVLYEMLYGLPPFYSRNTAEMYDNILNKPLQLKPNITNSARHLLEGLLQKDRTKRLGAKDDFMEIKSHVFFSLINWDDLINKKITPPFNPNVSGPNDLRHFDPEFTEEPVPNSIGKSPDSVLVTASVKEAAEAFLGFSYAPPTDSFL", "experiment": "Inhibition of SGK1 (unknown origin) at 0.078 uM relative to control"}, "[2]": {"target": "Testis-specific serine/threonine-protein kinase 1 (Homo sapiens) (UniProt Q9BXA7)", "experiment": "Inhibition of TSSK1 (unknown origin) at 0.49 uM relative to control"}, "[3]": {"target": "T2, cGMP-dependent protein kinase 1 (Homo sapiens) (UniProt Q13976)", "T2 sequence (whole entry)": "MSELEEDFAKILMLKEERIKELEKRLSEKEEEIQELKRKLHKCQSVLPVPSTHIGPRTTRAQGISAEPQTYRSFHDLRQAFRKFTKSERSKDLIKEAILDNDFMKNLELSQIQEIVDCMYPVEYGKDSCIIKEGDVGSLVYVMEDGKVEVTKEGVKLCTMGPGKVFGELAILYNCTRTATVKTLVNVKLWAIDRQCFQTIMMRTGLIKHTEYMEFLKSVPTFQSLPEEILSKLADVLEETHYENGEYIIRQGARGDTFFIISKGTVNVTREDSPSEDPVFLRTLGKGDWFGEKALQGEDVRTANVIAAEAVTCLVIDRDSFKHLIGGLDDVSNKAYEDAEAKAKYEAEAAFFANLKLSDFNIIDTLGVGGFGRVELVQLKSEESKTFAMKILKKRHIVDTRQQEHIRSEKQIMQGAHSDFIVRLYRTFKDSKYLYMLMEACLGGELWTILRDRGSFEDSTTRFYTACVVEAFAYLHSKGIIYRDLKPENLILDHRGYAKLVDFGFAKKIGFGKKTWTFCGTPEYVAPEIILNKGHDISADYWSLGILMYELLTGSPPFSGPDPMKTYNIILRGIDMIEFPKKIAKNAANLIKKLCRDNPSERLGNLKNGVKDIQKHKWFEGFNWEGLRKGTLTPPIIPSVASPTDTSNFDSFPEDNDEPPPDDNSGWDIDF", "experiment": "Inhibition of PKG-alpha (unknown origin) at 0.49 uM relative to control"}, "[4]": {"target": "Serine/threonine-protein kinase Sgk3 (Homo sapiens) (UniProt Q96BR1)", "experiment": "Inhibition of SGK3 (unknown origin) at 0.49 uM relative to control"}, "[5]": {"test_system": "Fibroblast growth factor receptor 2 (Homo sapiens), P21802 [N549H]", "experiment": "Inhibition of FGFR2 N549H mutant (unknown origin) at 0.49 uM"}, "[6]": {"target": "Vascular endothelial growth factor receptor 3 (Homo sapiens) (UniProt P35916)", "experiment": "Inhibition of FLT4 (unknown origin) at 0.49 uM relative to control"}, "[7]": {"target": "Serine/threonine-protein kinase Chk2 (Homo sapiens) (UniProt O96017)", "experiment": "Inhibition of CHK2 (unknown origin) at 0.49 uM relative to control"}, "[8]": {"target": "Tyrosine-protein kinase Lyn (Homo sapiens) (UniProt P07948)", "experiment": "Inhibition of LYNB (unknown origin) at 0.49 uM relative to control"}, "[9]": {"target": "Tyrosine-protein kinase Mer (Homo sapiens) (UniProt Q12866)", "experiment": "Inhibition of Mer (unknown origin) at 0.49 uM relative to control"}, "[10]": {"test_system": "Platelet-derived growth factor receptor alpha (Homo sapiens), P16234 [D842V]", "experiment": "Inhibition of PDGFRA D842V mutant (unknown origin) at 0.49 uM relative to control"}, "[11]": {"target": "Proto-oncogene tyrosine-protein kinase Src (Homo sapiens) (UniProt P12931)", "experiment": "Inhibition of SRC (unknown origin) at 0.49 uM relative to control"}, "[12]": {"target": "Interleukin-1 receptor-associated kinase 1 (Homo sapiens) (UniProt P51617)", "experiment": "Inhibition of IRAK1 (unknown origin) at 0.49 uM relative to control"}, "[13]": {"target": "Serine/threonine-protein kinase D1 (Homo sapiens) (UniProt Q15139)", "experiment": "Inhibition of PKD1 (unknown origin) at 0.49 uM relative to control"}, "[14]": {"target": "Protein kinase C beta type (Homo sapiens) (UniProt P05771)", "experiment": "Inhibition of PKC-beta1 (unknown origin) at 0.49 uM relative to control"}, "[15]": {"target": "AMPK alpha2/beta1/gamma1 (Homo sapiens) (UniProt P54646+P54619+Q9Y478)", "experiment": "Inhibition of AMPK-alpha2/beta1/gamma1 (unknown origin) at 0.45 uM relative to control", "format": "protein-complex assay"}, "[16]": {"target": "Mitogen-activated protein kinase 3 (Homo sapiens) (UniProt P27361)", "experiment": "Inhibition of Erk1 (unknown origin) at 0.45 uM relative to control"}, "[17]": {"target": "Glycogen synthase kinase-3 beta (Homo sapiens) (UniProt P49841)", "experiment": "Inhibition of GSK3b (unknown origin) at 0.45 uM relative to control"}, "[18]": {"target": "Mitogen-activated protein kinase 14 (Homo sapiens) (UniProt Q16539)", "experiment": "Inhibition of p38a (unknown origin) at 0.45 uM relative to control"}, "[19]": {"test_system": "Mitogen-activated protein kinase 14 (Homo sapiens), Q16539 [T106M]", "experiment": "Inhibition of SAPK2a T106M mutant (unknown origin) at 0.45 uM relative to control"}, "[20]": {"target": "SRSF protein kinase 2 (Homo sapiens) (UniProt P78362)", "experiment": "Inhibition of SRPK2 (unknown origin) at 0.45 uM relative to control"}, "[21]": {"target": "Tyrosine-protein kinase ITK/TSK (Homo sapiens) (UniProt Q08881)", "experiment": "Inhibition of ITK (unknown origin) at 0.45 uM relative to control"}, "[22]": {"target": "Phosphorylase b kinase gamma catalytic chain, skeletal muscle/heart isoform (Homo sapiens) (UniProt Q16816)", "experiment": "Inhibition of PhKg1 (unknown origin) at 0.45 uM relative to control"}, "[23]": {"test_system": "Tyrosine-protein kinase ABL1 (Homo sapiens), P00519 [T315I]", "experiment": "Inhibition of Abl T315I mutant (unknown origin) at 0.45 uM relative to control"}, "[24]": {"target": "Tyrosine-protein kinase receptor UFO (Homo sapiens) (UniProt P30530)", "experiment": "Inhibition of AXL (unknown origin) at 0.45 uM relative to control"}, "[25]": {"target": "Tyrosine-protein kinase SYK (Homo sapiens) (UniProt P43405)", "experiment": "Inhibition of SYK (unknown origin) at 0.45 uM relative to control"}}}
{"smiles": "COC(=O)Nc1noc2cc(-c3c(-c4ccccn4)n[nH]c3C)ccc12", "values": [{"measurement": "inhibition", "setting": "[1]", "result": -10, "unit": "%"}]}
{"smiles": "Cc1[nH]nc(C2CC2)c1-c1ccc2c(NC(=O)C3CC3)noc2c1", "values": [{"measurement": "inhibition", "setting": "[2]", "result": 1, "unit": "%"}, {"measurement": "inhibition", "setting": "[3]", "result": 0, "unit": "%"}, {"measurement": "inhibition", "setting": "[4]", "result": 1.3, "unit": "%"}, {"measurement": "inhibition", "setting": "[5]", "result": 0, "unit": "%"}, {"measurement": "inhibition", "setting": "[6]", "result": -2.7, "unit": "%"}, {"measurement": "inhibition", "setting": "[7]", "result": 8, "unit": "%"}, {"measurement": "inhibition", "setting": "[8]", "result": 3, "unit": "%"}, {"measurement": "inhibition", "setting": "[9]", "result": 11.3, "unit": "%"}, {"measurement": "inhibition", "setting": "[10]", "result": 31.7, "unit": "%"}, {"measurement": "inhibition", "setting": "[11]", "result": 5, "unit": "%"}, {"measurement": "inhibition", "setting": "[12]", "result": 6.7, "unit": "%"}, {"measurement": "inhibition", "setting": "[13]", "result": 1.7, "unit": "%"}, {"measurement": "inhibition", "setting": "[14]", "result": 5, "unit": "%"}]}
{"smiles": "Cc1n[nH]c(C)c1-c1ccc2c(NC(=O)c3ccc(N4CCN(C)CC4)cc3)n[nH]c2c1", "values": [{"measurement": "inhibition", "setting": "[15]", "result": 26, "unit": "%"}, {"measurement": "inhibition", "setting": "[16]", "result": 1.3, "unit": "%"}, {"measurement": "inhibition", "setting": "[17]", "result": 1.3, "unit": "%"}, {"measurement": "inhibition", "setting": "[18]", "result": 1.7, "unit": "%"}, {"measurement": "inhibition", "setting": "[19]", "result": 1.3, "unit": "%"}, {"measurement": "inhibition", "setting": "[20]", "result": 0.3, "unit": "%"}, {"measurement": "inhibition", "setting": "[21]", "result": 89, "unit": "%"}, {"measurement": "inhibition", "setting": "[22]", "result": 0.7, "unit": "%"}, {"measurement": "inhibition", "setting": "[23]", "result": 58.7, "unit": "%"}, {"measurement": "inhibition", "setting": "[24]", "result": 0.3, "unit": "%"}, {"measurement": "inhibition", "setting": "[25]", "result": 2.7, "unit": "%"}]}
